Molecules are shown by their SMILES.

Holding throughout (type): cell-based, human
Assay [1] has as its system TNF-alpha. The assay is described as follows: TNF-alpha secretion by LPS-stimulated leukocytes (mononuclear cells), multiplex cytokine kit. Particulars: for % reduction of TNF-alpha: pre-incubating cells prior to the stimulation with LPS, concentration not stated in the sentence (Table 1a). Here is the method:
(§1) Leukocytes are obtained from healthy donors. Mononuclear cells (MNC) are purified by Ficoll-Isopaque gradient centrifugation. Cells (at 3-8×10^6 cells/mL) are cultured in phenol-red free RPMI 1640, supplemented with 0.25% FBS, 0.1 mM NEAA, 50 U/mL penicillin, 50 μg/mL streptomycin and 5×10^-5 M 2-mercaptoethanol. Cells are stimulated with LPS (100 ng/mL) and IFN-γ (20 U/mL) for 2-24 h. Multiparametric kits for determination of cytokines and chemokines are purchased from BIO-RAD Laboratories (Hercules, Calif.) and used in the LiquiChip Workstation IS 200 (Qiagen, Hilden, Germany). The data are evaluated with the LiquiChip Analyser software (Qiagen).
(§2) The algorithm developed by Chou and Tatalay is used to calculate synergistic effects (Chou, T-C. Et Tatalay, P. A simple Biol. Chem. 252, 6438-6442, 1977; Chou, T-C. Et Tatalay, P. Analysis of combined drug effects—A new look at a very old problem. Trends in Biological Sciences. November 1983, p 450-454, 1983). Interactions are quantified by the Combination Index (CI). Briefly, the % of inhibition of the concentration of each single substance alone or the mixture of both are determined. The affected fraction (fa) (values between 0 and 1) and unaffected fraction (fu) (1−fa), respectively, is calculated. For median-effect plots, log (fa/fu) is plotted against log (D), where D represents the concentration of each single compound alone or the mixture of both. Using CalcuSyn software (Biosoft, Ferguson, Mo.), which is based upon the method by Chou Et Tatalay, a CI is computed for every fraction affected: a CI<1 reflects synergistic inhibition of the respective inflammatory parameter; if CI=1 the substances have additive interactions; when CI>1 the interaction of substances reflects antagonism. It has also been observed that substances can have synergistic or antagonistic interactions at given concentrations or ratios, respectively (see e.g. Pappa et al. Quantitative combination effects between sulforaphane and 3,3′-[…] diindolylmethane on proliferation of human colon cancer cells in vitro. Carcinogenesis 28, 1471-77, 2007).
(§3) Cells are stimulated with LPS, an pathogen-derived component that induces inflammatory response, which is reflected in the expression of inflammatory genes and the secretion of cytokines, interleukins and chemokines (Table 1). LPS induces a massive increase of the secretion of inflammatory mediators such as TNF-alpha. Concomitantly, inflammatory mediators are secreted. These parameters are modulated by pre-incubating cells with α-tocopherol or ω-3 PUFA prior to the stimulation with LPS. For instance, the pro-inflammatory cytokine […] is reduced by 29% and 64%, respectively (Table 1a). […] Thus, the substances reduces the extent of the inflammatory stress in cells that respond to inflammatory stimuli.

For assay [2], the system named is IL-1beta. The assay is described as follows: IL-1beta secretion by LPS-stimulated leukocytes (mononuclear cells), multiplex cytokine kit. Particulars: for IL-1beta reduction (in words): pre-incubating cells prior to the stimulation with LPS. As to the method:
as §1, with “(Qiagen). […]” for “(Qiagen).”
as §3

Assay [3] relates to CCL4/MIP-1beta. The assay is described as follows: CCL4/MIP-1beta secretion by LPS-stimulated leukocytes (mononuclear cells), multiplex cytokine kit. The conditions noted are these: for CCL4/MIP-1 b reduction (in words): pre-incubating cells prior to the stimulation with LPS. As to the method:
as §1, §2, §3

Consider `Cc1c(C)c2c(c(C)c1O)CC[C@@](C)(CCC[C@H](C)CCC[C@H](C)CCCC(C)C)O2` [AT, α-tocopherol], for which the “% reduction of TNF-alpha” value in assay [1] came out at 29%. Moreover, the “% inhibition (vs LPS) of TNF-alpha” value in assay [1] (single substance 10 μM + LPS) is reported as −4%; in assay [1] (single substance 50 μM + LPS), 29%; in assay [1] (single substance 200 μM + LPS) it was 27%. Further, the “TNF-alpha pg/mL ± SD” value came out at 5505 ± 177 pg/mL in assay [1] (single substance 10 μM + LPS), 3755 ± 21 pg/mL in assay [1] (single substance 50 μM + LPS) and 3870 ± 14 pg/mL in assay [1] (single substance 200 μM + LPS). Further, the “IL-1beta reduction (in words)” value in assay [2] is on record as “significantly reduced”. Also, the “% inhibition (vs LPS) of IL-1beta” value in assay [2] (single substance 10 μM + LPS) is given as −7%; in assay [2] (single substance 50 μM + LPS) it was 9%; in assay [2] (single substance 200 μM + LPS) it was 14%. Moreover, the “IL-1beta pg/mL ± SD” value was 6770 ± 438 pg/mL in assay [2] (single substance 10 μM + LPS), 5735 ± 134 pg/mL in assay [2] (single substance 50 μM + LPS) and 5430 ± 113 pg/mL in assay [2] (single substance 200 μM + LPS). In addition, the “CCL4/MIP-1 b reduction (in words)” value in assay [3] is recorded as “significantly reduced”. Also, the “% inhibition (vs LPS) of CCL4” value came out at 7% in assay [3] (single substance 10 μM + LPS), 15% in assay [3] (single substance 50 μM + LPS) and 11% in assay [3] (single substance 200 μM + LPS). The “CCL4 pg/mL ± SD” value was 91400 ± 5657 pg/mL in assay [3] (single substance 10 μM + LPS), 83900 ± 3111 pg/mL in assay [3] (single substance 50 μM + LPS) and 87950 ± 3165 pg/mL in assay [3] (single substance 200 μM + LPS).
Take `CC/C=C\C/C=C\C/C=C\C/C=C\C/C=C\C/C=C\CCC(=O)O` [DHA, (all-Z)-4,7,10,13,16,19-docosahexaenoic acid]: the “% reduction of TNF-alpha” value in assay [1] amounted to 64%. Besides, the “% inhibition (vs LPS) of TNF-alpha” value in assay [1] (single substance 10 μM + LPS) came out at 60%; in assay [1] (single substance 20 μM + LPS) it was 64%; in assay [1] (single substance 50 μM + LPS), 59%. Also, the “TNF-alpha pg/mL ± SD” value in assay [1] (single substance 10 μM + LPS) is listed as 3190 ± 14 pg/mL; in assay [1] (single substance 20 μM + LPS), 3400 ± 523 pg/mL; in assay [1] (single substance 50 μM + LPS) it was 3105 ± 163 pg/mL. Besides, in assay [2], the “IL-1beta reduction (in words)” value is on record as “significantly reduced”. For the same molecule, the “% inhibition (vs LPS) of IL-1beta” value in assay [2] (single substance 10 μM + LPS) is reported as 14%; in assay [2] (single substance 20 μM + LPS) it was 23%; in assay [2] (single substance 50 μM + LPS), 77%. Further, the “IL-1beta pg/mL ± SD” value in assay [2] (single substance 10 μM + LPS) came out at 5405 ± 742 pg/mL; in assay [2] (single substance 20 μM + LPS) it was 4865 ± 1633 pg/mL; in assay [2] (single substance 50 μM + LPS) it was 1440 ± 71 pg/mL. The “CCL4/MIP-1 b reduction (in words)” value in assay [3] is “significantly reduced”. The “% inhibition (vs LPS) of CCL4” value in assay [3] (single substance 10 μM + LPS) came out at 32%; in assay [3] (single substance 20 μM + LPS), 62%; in assay [3] (single substance 50 μM + LPS), 62%. Besides, the “CCL4 pg/mL ± SD” value in assay [3] (single substance 10 μM + LPS) amounted to 79995 ± 3465 pg/mL; in assay [3] (single substance 20 μM + LPS), 67000 ± 7523 pg/mL; in assay [3] (single substance 50 μM + LPS) it was 37600 ± 778 pg/mL.
